In brackets after ≈: the same amount, converted by molar mass. Where a SMILES comes first, the peptide text is derived from it. [ ]: non-standard residue; d: D form. The star is where a group is joined. Sta = CC(C)C[C@H](N)[C@@H](O)CC(=O)O; Isovaleryl = CC(C)CC(=O)*
Key:
pepsin = molecular target: T1, pepsin (Sus scrofa, UniProt P00791); assay: Enzymatic activity of pepsin (adapted Anson method, denatured haemoglobin substrate, absorbance at 280 nm); assay type: biochemical; details: for ΔAX at 280 nm: inhibitor 0.01% (suspension in H2O)
T1 construct: purchased BDH
Experimental: The method used to measure the enzymatic activity of pepsin alone or together with the inhibitory substance (pepstatin), consists of an adaptation of the Anson method [Anson et al, J. Gen. Physiol. 1931, 16, 59] which provides for the use of denatured haemoglobin as substrate. The enzymatic activity was determined after precipitation with trichloroacetic acid of the non-hydrolysed substrate. The activity of the enzyme was determined spectrophotometrically from the concentration of soluble peptides released by the proteolytic action.
T=37° C., pH=1,5, Anm, optical path 1 cm, reaction time 10 minutes. At pH=1.5, in which the experiments were conducted, there is a maximum activity of pepsin.
Haemoglobin 2%, pepsin 0,02%, inhibitor 0.01%.
Substrate: 250 mg of human haemoglobin are weighed in a 10 mL flask, it is brought up to volume with distilled water and left under stirring for 10 minutes in a water bath at 37° C. to obtain a solution 2.5%. The solution is passed through a filter paper to eliminate insoluble residues. 8 mL of the filtrate are taken and the volume is brought up to 10 mL with acidic water so as to have a final pH finale of 1.5 and a solution 2% (w/V).
Enzyme: 5 mg of pepsin are weighed in a 5 mL flask and it is brought up to volume with acidic water (pH=1.5).
Enzyme together with inhibitory substance: 5 mg of pepsin are weighed in a 5 mL flask. 0.5 mg/mL of a solution or suspension at pH=1.5 of the inhibitory substance are prepared separately (checking the pH with a pH meter and correcting it, if necessary, with hydrochloric acid 12 M in an amount such not to change the total volume). […]
0.25 mL of substrate (haemoglobin) are pipetted in a suitable vial and almost entirely submerged in a water bath thermostated at 37° C. It is left under magnetic stirring for 10 minutes at 37° C. 50 microlitres of the enzyme solution (pepsin) or of the enzyme together with the inhibitory substance (pepsin+pepstatin A) are then added and the system is kept under incubation for exactly 10 minutes. 0.5 mL of the trichloroacetic acid solution 5% are added after this period of time and then left for another 5 minutes. Exactly 3 mL of distilled water at pH=1.5 are added into the vial using a graduated pipette; the solution is stirred and filtered using a 0.45 μm syringe filter. An absorption spectrum (with absorbance (A) always below 1) with wavelengths comprised between 300 nm and 250 nm is recorded using a spectrophotometer using the absorbance value at 280 nm as reference.
Blank: 0.25 mL of substrate (haemoglobin) are pipetted in a suitable vial and almost entirely submerged in a water bath thermostated at 37° C. It is left under magnetic stirring for 10 minutes. 50 microlitres 0.5 mg/mL of the inhibitory substance solution (without enzyme) are then added and the system is kept under incubation for exactly 10 minutes. 0.5 mL of the trichloroacetic acid solution 5% are added after this period of time and then left for another 5 minutes.
50 microlitres of solution 1 mg/mL of enzyme without inhibitory substance are the introduced. Exactly 3 mL of distilled water at pH=1.5 are added into the vial using a graduated pipette, then the solution is stirred and filtered using a 0.45 μm syringe filter. An absorbance with wavelengths comprised between 300 nm and 250 nm is recorded using a spectrophotometer using the absorbance value at 280 nm as reference.
Each experiment was repeated at least twice. The final absorbance value (A) at 280 nm was the mean of the absorbance values obtained (with an uncertainty on the values always much lower than 10%). A ΔA, with ΔAx=A280sample substanceX−A280blank substance X and ΔAo=A280sample free pepsin−A280blank free pepsin in the event of absence of the inhibitory substance are associated with the pepsin-inhibiting substance. […]

physchem = details: Solubility in ethanol (EtOH)

T1 sequence (P00791 60-385): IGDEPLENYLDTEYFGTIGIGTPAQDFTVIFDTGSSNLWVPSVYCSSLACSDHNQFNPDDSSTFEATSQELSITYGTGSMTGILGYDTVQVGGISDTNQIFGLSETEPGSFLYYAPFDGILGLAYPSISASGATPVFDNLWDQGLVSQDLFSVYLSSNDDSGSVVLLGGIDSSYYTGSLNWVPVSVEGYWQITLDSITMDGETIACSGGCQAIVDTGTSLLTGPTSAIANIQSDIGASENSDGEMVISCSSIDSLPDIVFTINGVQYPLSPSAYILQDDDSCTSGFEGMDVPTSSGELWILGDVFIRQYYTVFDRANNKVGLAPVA

CC(C)CC(=O)N[C@H](C(=O)N[C@H](C(=O)N[C@@H](CC(C)C)[C@@H](O)CC(=O)N[C@@H](C)C(=O)N[C@@H](CC(C)C)[C@@H](O)CC(=O)O)C(C)C)C(C)C [PEPSTATIN, Isovaleryl-L-val-L-val-statyl-L-alanyl-statin] (Isovaleryl-VV[Sta]A[Sta]-OH)
ΔAX at 280 nm (pepsin; pepsin 0.02%, haemoglobin 2%, pH 1.5, 37° C., 10 minutes): 0 | ΔAX at 280 nm (pepsin; pepsin 0.02%, haemoglobin 2%, pH 1.5, 37° C., 10 minutes, listed as Pepstatin): 0 | ΔAX at 280 nm (pepsin; pepsin 0.02%, haemoglobin 2%, pH 1.5, 37° C., 10 minutes, listed as pepstatin): 0.004 | Residual activity with respect to the maximum activity measured (pepsin; inhibitor 0.01%, pepsin 0.02%, haemoglobin 2%, pH 1.5, 37° C., 10 minutes): 0% | Activity of pepsin in the presence of pepstatin 1 μM (pepsin; pepstatin 1 μM diluted in H2O after dissolution in EtOH 1 mg/mL, added to haemoglobin 2% before pepsin, pH 1.5, 10 min (FIG. 3)): total abatement in the activity | Binding between the enzyme and the inhibitor (kinetics study) (pepsin; pepstatin 1 μM in haemoglobin 2%, time scale of the experiment t=10 minutes): immediate binding | Concentrations at which pepsin is inhibited / totally deactivated (pepsin; statement in Conclusions, no picomolar test described): picomolar concentrations | solubility (physchem): 1000 µg/mL (≈ 1460 µM)

— patent publication US20230181703A1, “COMPOSITION COMPRISING PEPSTATIN AND ALGINIC ACID OR A SALT THEREOF, AND USE THEREOF” (DRUGS MINERALS AND GENERICS ITALIA S.R.L. IN FORMA …, priority 2020, published 2023)
